Blank lines part the entries; values can stand above or below the molecule they belong to.
Columns and labels:
[1] = system: rat aortic smooth muscle cells (A10); assay: A10 growth inhibition by PTX derivatives, Alamar Blue assay; format: cell-based; conditions: free compound, 2 hr incubation, cell viability 7 days post treatment vs untreated cells
Protocol: Cells seeded at 10% confluency on 96-well plates were incubated with the compounds at indicated PTX molar equivalent doses for 2 hr, and the cell viability was compared to that of untreated cells 7 days post treatment using the Alamar Blue assay.

A10 cells [2] = assay: Magnetically guided A10 growth inhibition by MNP loaded with PTX derivatives; format: cell-based, rat; conditions: compounds formulated in MNP, 5 min exposure, high gradient magnetic field (32.5 T/m), viability 7 days post treatment
Protocol: Polylactide-based MNP were formulated with inclusion of nanocrystalline magnetite by a modification of the emulsification-solvent evaporation method. Ferric chloride hexahydrate and ferrous chloride tetrahydrate (170 and 62.5 mg, respectively) were dissolved in ethanol (2.5 mL) and mixed with freshly prepared aqueous sodium hydroxide (0.5 N, 5 mL). The precipitate was heated for 1 min at 90° C., cooled on ice, and separated on a magnet. The obtained magnetite was stirred with a solution of oleic acid in ethanol (150 mg in 2 mL) at 90° C. for 5 min. Free oleic acid was separated by deionized water. Magnetite was washed with ethanol, dispersed in 8 mL of chloroform, and used to dissolve 100 mg of poly(D,L-lactide) (molecular weight 75,000-120,000 Da) and 15 mg PTX or a PTX prodrug. The organic dispersion was emulsified by sonication on ice in 10 mL of an aqueous solution of bovine serum albumin (1% w/v), and the organic solvent was evaporated under reduced pressure. MNP were washed twice by magnetic decantation, resuspended in 6 mL of aqueous trehalose (10% w/v), passed through a sterile 5 μm filter unit and lyophilized. […]
Cells were incubated with indicated doses of the compounds formulated in MNP for 5 min with or without (mag+ or mag−) the presence of a high gradient magnetic field (average field gradient of 32.5 T/m). Cell viability was determined as above 7 days post treatment.

[3] = In vitro release kinetics and recovery from MNP, external sink method; format: physicochemical; conditions: for total recovered (release medium samples and upon experiment termination): MNP diluted 1:500 in phosphate buffer with 2% bovine serum albumin, heptane/1-octanol acceptor, 5-day experiment; for initial drug payload still present in the MNP: at the end of the 5-day experiment, extraction in 1-octanol
Protocol: The release of 2′-PTX-glycol-suc-Chol from MNP was measured in comparison with PTX using the external sink method. A 1:1 mixture of heptane and 1-octanol was used as the acceptor medium to ensure perfect sink conditions. MNP were diluted 1:500 in phosphate buffer containing 2% bovine serum albumin, included to more closely model in vivo conditions. Released drug was assayed spectrophotometrically in the acceptor phase at predetermined timepoints (λ=230 nm). After five days the amount of the compounds remaining in MNP was measured following extraction in 1-octanol.

A10 cells [4] = assay: A10 inhibition by MNP after 4-day incubation with fetal bovine serum at 37° C. (recovered activity); format: cell-based, rat; conditions: MNP incubated 4 days in FBS at 37° C. vs fresh MNP, magnetic conditions, 5-20 ng drug per well
Protocol: MNP loaded with 2′-PTX-glycol-suc-Chol or PTX at 1 mg/mL were diluted 1:500 in fetal bovine serum (FBS), placed on a tube rotator and incubated for 4 days at 37° C. modeling the exposure of stent-targeted MNP to the in vivo environment. MNP suspensions were then applied to A10 cells for 5 min in the presence of a high gradient magnetic field (See Example 9) in a dose range equivalent to 5-20 ng drug per well based on their initial drug loading. Their growth inhibitory effect was compared with that of fresh MNP applied in equivalent dilutions under magnetic conditions, and the ratio between their respective inhibition efficiencies was plotted as Recovered activity, % of control (See FIG. 4).

[5] = Drug release from typical PTX MNP under sink conditions; format: physicochemical; conditions: MNP comprising PTX, iron oxides and polylactide carrier
Source text: For example in a typical MNP comprising PTX, iron oxides and a polylactide carrier, about 50% and 80% of the drug is released under sink conditions after 4 hr and 24 hr, respectively. This may be too fast for optimal restenosis inhibition, given that the period of vulnerability to restenotic activity may extend for several weeks. It is believed that the large surface area to volume ratio and small linear dimensions of nanoparticles, combined with the relatively low molecular weight of PTX and limited affinity toward the carrier particles, result in the excessively rapid PTX escape from the nanoparticles. To deal with this problem, it has been found necessary to greatly increase the affinity of the PTX for the polymeric carrier. This has now been done by binding PTX to a structure (hereinafter “anchor”) that limits the diffusivity within the MNP compared with that of unbound PTX itself. The resulting PTX-anchor conjugate is a PTX prodrug. Prodrugs according to the invention are converted to the corresponding drugs (e.g., PTX) in vivo in a patient, which may be a human or other animal. The prodrug can be incorporated in the MNP with a high entrapment yield and can provide protracted drug release at the site of arterial injury.

[6] = Model experiments estimating stability of ester bonds (half-hydrolysis in phosphate buffer); format: physicochemical; conditions: pH=7 phosphate buffer at 21-22° C.
Source text: Based on the results of the model experiments, paclitaxel 2′-esters with N-acylglycines and acyloxyacetic acids containing highly hydrophobic residues (e.g., derived from cholesterol or tocopherol) are the most suitable for encapsulation in sustained release nanoparticle formulations as rapidly cleavable PTX prodrugs. In the context of in-stent restenosis therapy, these unique designs more effectively confine the drug formulated in magnetically targeted MNP to the stented area. Importantly, the by-products of the prodrug degradation deriving from the anchor and the linking group are all biocompatible endogenous small molecules, rapidly eliminated via natural metabolic pathways.

SMILES: CC(=O)O[C@H]1C(=O)[C@@]2(C)[C@H]([C@H](OC(=O)c3ccccc3)[C@]3(O)CC(OC(=O)[C@H](OC(=O)CNC(=O)CCC(=O)O[C@H]4CC[C@@]5(C)C(=CCC6C7CCC(C(C)CCCC(C)C)[C@@]7(C)CCC65)C4)[C@@H](NC(=O)c4ccccc4)c4ccccc4)C(C)=C1C3(C)C)[C@]1(OC(C)=O)CO[C@@H]1C[C@@H]2O (stereo partly shown) [2′-PTX-glycine-suc-Chol, PTX 2′-[N-(3-cholesteryloxycarbonyl)propionyl]glycinate]
A10 cell growth inhibition [1]: dose-dependent A10 cell growth inhibition
A10 cell growth inhibition, magnetic field (mag+) (A10 cells [2]): comparable to that of MNP loaded with PTX

SMILES: CC(=O)O[C@H]1C(=O)[C@@]2(C)[C@H]([C@H](OC(=O)c3ccccc3)[C@]3(O)CC(OC(=O)[C@H](OC(=O)COC(=O)CCC(=O)O[C@H]4CC[C@@]5(C)C(=CCC6C7CCC(C(C)CCCC(C)C)[C@@]7(C)CCC65)C4)[C@@H](NC(=O)c4ccccc4)c4ccccc4)C(C)=C1C3(C)C)[C@]1(OC(C)=O)CO[C@@H]1C[C@@H]2O (stereo partly shown) [2′-PTX-glycol-suc-Chol, PTX 2′-(3-cholesteryloxycarbonyl)propionyloxyacetate]
A10 cell growth inhibition [1]: dose-dependent A10 cell growth inhibition
total recovered (release medium samples and upon experiment termination) [3]: 81%
initial drug payload still present in the MNP [3]: 30%
release kinetics from MNP vs. PTX ([3]; external sink method, 5 days): significantly slower release kinetics
A10 cell growth inhibition, magnetic field (mag+) (A10 cells [2]): comparable to that of MNP loaded with PTX
Recovered activity, % of control (fraction of initial activity retained) (A10 cells [4]): retained a larger fraction of its initial activity compared to PTX

SMILES: CC(=O)OC1C(=O)C2(C)C(O)CC3OCC3(OC(C)=O)C2C(OC(=O)c2ccccc2)C2(O)CC(OC(=O)C(OC(=O)CCC(=O)OC3CCC4(C)C(=CCC5C4CCC4(C)C(C(C)CCCC(C)C)CCC54)C3)C(NC(=O)c3ccccc3)c3ccccc3)C(C)=C1C2(C)C (stereo not shown) [2′-PTX-suc-Chol]
A10 cell growth inhibition [1]: no growth inhibition

drug released ([5]; after 4 hr): about 50%
drug released ([5]; after 24 hr): ~80%
total recovered (release medium samples and upon experiment termination) [3]: 55%
initial drug payload still present in the MNP [3]: none
SMILES: CC(=O)O[C@H]1C(=O)[C@@]2(C)[C@H]([C@H](OC(=O)c3ccccc3)[C@]3(O)C[C@H](OC(=O)[C@H](O)[C@@H](NC(=O)c4ccccc4)c4ccccc4)C(C)=C1C3(C)C)[C@]1(OC(C)=O)CO[C@@H]1C[C@@H]2O [PTX, Paclitaxel]

time of half-hydrolysis [6]: approximately 200 days
SMILES: CCOC(C)=O [ethyl acetate]

time of half-hydrolysis [6]: 27 days
SMILES: CCOC(=O)CNC(C)=O [ethyl ester of N-acetylglycine, ethyl esters of N-acetylglycine]

SMILES: CCOC(=O)COC(C)=O [ethyl ester of acetoxyacetic acid]
time of half-hydrolysis [6]: 9 days

— US9233163B2, “Hydrolytically releasable prodrugs for sustained release nanoparticle formulations” (The Children's Hospital of Philadelphia, priority 2010, dated 2016)
